This is an account of results in PMC8252455, “Prediction of a clinically effective dose of THY1773, a novel V 1B receptor antagonist, based on preclinical data” (Biopharmaceutics & Drug Disposition, 2021).

Series [1] can be described thus: Blood-to-plasma ratio in dog whole blood. The series is classed as in vitro ADME. To be noted: 1 μmol/L. As to the method: (§1) The blood‐to‐plasma ratios of THY1773 were analyzed using pooled fresh whole blood (anticoagulant: EDTA‐2K) and control plasma separated from fresh whole blood in parallel from rats, dogs, and humans. Whole blood and control plasma containing 1 μmol/L THY1773 were incubated at 37°C for 30 min in a shaking water bath. The incubated whole blood was centrifuged at 2000 × g for 10 min at 4°C to obtain plasma. An aliquot of each plasma sample (i.e., isolated plasma from incubated whole blood and control plasma) was mixed with 8 volumes of acetonitrile/methanol (9:1, vol/vol) containing the IS. After centrifugation at 3974 × g for 10 min at 4°C, the supernatant was subjected to liquid chromatography/tandem mass spectrometry (LC‐MS/MS) analysis. The blood‐to‐plasma ratio was calculated by dividing the […].

Series [2] in a line: Metabolic stability in rat liver microsomes. The following applies: 1 μmol/L. It is filed as in vitro ADME. The procedure: The oxidative metabolism of THY1773 was evaluated in rat and dog liver microsomes. THY1773 (1 μmol/L) was incubated with pooled liver microsomes (0.25 mg protein/ml) in sodium–potassium phosphate buffer (pH 7.4) consisting of 100 mmol/L sodium phosphate, 100 mmol/L potassium chloride, 2.5 mmol/L magnesium chloride (MgCl2), 1.5 mmol/L glucose‐6‐phosphate (G‐6‐P), and 0.18 units/ml G‐6‐P dehydrogenase (G‐6‐PDH). The reactions were initiated by the addition of β‐nicotinamide–adenine dinucleotide phosphate, oxidized form (NADP^+, 0.16 mmol/L), and incubated for 10, 20, 30, 40, 50, and 60 min. […] The intrinsic clearance (CLint) was calculated by the substrate depletion method described by Naritomi et al. (2001).
Since the CLliver was underestimated in rats and dogs from CLint in liver microsomes, the ratio of observed in vivo CLint and predicted CLint was calculated as the empirical scaling factor (ESF) for the extrapolation of CLliver from in vitro data. […] The total plasma clearance (CLtotal) was calculated by Equation (4): (4) CLtotal=QH×fu×(CLint/fu,mic)/QH+(fu/Rb)×(CLint/fu,mic)+CLrenal where QH is hepatic blood flow, fu is the free fraction in plasma, fu,mic is the fraction unbound in HLMs, Rb is blood‐to‐plasma ratio, and CLrenal is renal clearance. The fu,mic value was calculated using the Simcyp population based simulator (Version 16 R1; Simcyp Ltd.). […]
Background: Microsomes from liver hold many membrane-bound enzymes, among them those of drug oxidation.

Series [3] deals with anterior pituitary V1B receptor. The series is described as follows: Rat V1B RO study using a tritium labeled V1B receptor ligand. To be noted: in vivo; estimated from RO study of Kamiya et al., 2020.
Series [4] can be described thus: Plasma protein binding by equilibrium dialysis, rat plasma. To be noted: 300 ng/ml. The series is classed as in vitro ADME. As to the method: The plasma protein binding of THY1773 in rats, dogs, and humans was evaluated by an equilibrium dialysis method using a 96‐well equilibrium dialysis plate (HTDialysis) with a 12–14 kDa cut‐off dialysis membrane. THY1773 was dissolved in dimethyl sulfoxide, and spiked with rat, dog, or human plasma at a final concentration of 300 ng/ml. An aliquot of plasma containing THY1773 and sodium phosphate buffer (pH 7.4) was added into the donor side and the receiver side of each designated well, respectively. After incubation for 6 h at a rate of 50 oscillation/min at 37°C in an air incubator, an aliquot of each side of each well was collected and mixed with acetonitrile/methanol (9:1, vol/vol) containing the IS. Each sample was centrifuged at 3974 × g for 10 min at 4°C to remove the precipitated proteins, and the resultant supernatants were subjected to LC‐MS/MS analysis. The protein binding (%) was calculated using the Boudinot formula (Boudinot & Jusko, 1984).
Background: In equilibrium dialysis only unbound substance equilibrates across the membrane.

A short description of series [5]: Blood-to-plasma ratio in rat whole blood. The series is classed as in vitro ADME. To be noted: 1 μmol/L. The procedure: as §1
Series [6] is described as follows: CLint in human liver microsomes (reaction phenotyping, no inhibitor). The series is classed as in vitro ADME. The following applies: HLMs. The procedure: Reaction phenotyping using cDNA expressed recombinant human CYP isoforms, CYP1A2, CYP2B6, CYP2C8, CYP2C9, CYP2C19, CYP2D6, and CYP3A4, was conducted. Each recombinant enzyme (100 pmol/ml) in potassium phosphate buffer (pH 7.4; 100 mmol/L for CYP3A4, 50 mmol/L for the others) was preincubated with [^3H]THY1773 (10 μmol/L) at 37°C for 5 min. The reactions were initiated by the addition of NADPH‐generating system (1 mmol/L NADP^+, 5 mmol/L G‐6‐P, 1 unit/ml G‐6‐PDH, and 5 mmol/L MgCl2) and incubated for 0 or 60 min. The reactions were terminated by the addition of an equal volume of acetonitrile/methanol (9:1, vol/vol), followed by centrifugation at 1650 × g for 10 min at 4°C. An aliquot of the supernatant was subjected to an Agilent 1200 HPLC system (Agilent Technologies, Inc.) equipped with a radiochemical flow detector (Radiomatic 625TR; Perkin Elmer, Inc.), and formation of metabolites was evaluated. […] The CLint was calculated by the method as described previously under metabolic stability in animal liver microsomes, and the fraction metabolized (fm) was calculated by Equation (1): (1) fm=1−(CLint, with inh/CLint) where CLint is intrinsic clearance without specific inhibitor and CLint,with inh is intrinsic clearance in the presence of specific inhibitor.

As for `CC(C)NC(=O)Cn1c(-c2cccc(Cl)c2)nn(-c2ccc(CCN3CCOCC3)cc2)c1=O` [THY1773], the Blood-to-plasma ratio in series [1] stood at 0.846; in series [5], 0.822. Moreover, in series [2], the “CLint in liver microsomes” value was determined as 22.0 μL/min/mg protein. In addition, the 50% effective concentration (EC50) in series [3] was 4.8 nM. In series [4], this compound came in with a Plasma protein binding of 89.2%. The CLint in series [6] (500 nmol/L, no inhibitor) came to 11.2 ± 0.898 µL/min/mg. Besides, in series [6] (experimental data), the “CLint (PBPK input, Model 1)” value is given as 11.2 (Model 1) μl/min/mg protein.

One may read the EC50 as the concentration needed to bring the measured effect to its halfway point.
